# In ChEMBL document CHEMBL5241075, “Advancement of chimeric hybrid drugs to cure malaria infection: An overview with special emphasis on endoperoxide pharmacophores” (Eur J Med Chem, 2021):
# Active and inactive are the calls of the source. The calls are words filed in the database; no cut-off is given here.
# Key:
# [1] = test system: Plasmodium yoelii nigeriensis; experiment: Antiplasmodial activity against Plasmodium yoelii nigeriensis infected in sc dosed mouse assessed as reduction in parasitemia; type: functional
# [2] = test system: Plasmodium yoelii nigeriensis; experiment: Antiplasmodial activity against Plasmodium yoelii nigeriensis infected in po dosed mouse assessed as reduction in parasitemia; type: functional
# [3] = test system: Plasmodium falciparum; experiment: Antimalarial activity against chloroquine resistant Plasmodium falciparum FcB1; type: functional, organism-based
# [4] = test system: Plasmodium vinckei; experiment: Antimalarial activity against Plasmodium vinckei infected in ip dosed mouse assessed as reduction in parasitemia relative to control; type: functional; set-up: scale not given: the % may be the effect or the level left
# [5] = test system: Plasmodium falciparum; experiment: Antiplasmodial activity against Plasmodium falciparum FcM29; type: functional, organism-based
# [6] = test system: Plasmodium vinckei; experiment: Antimalarial activity against Plasmodium vinckei infected in ip dosed mouse assessed as reduction in parasitemia; type: functional
# [7] = test system: Plasmodium falciparum; experiment: Antiplasmodial activity against Plasmodium falciparum Nigerian; type: functional, organism-based
# [8] = test system: Plasmodium vinckei; experiment: Antimalarial activity against Plasmodium vinckei infected in po dosed mouse assessed as reduction in parasitemia relative to control; type: functional; set-up: scale not given: the % may be the effect or the level left
# [9] = test system: Plasmodium vinckei; experiment: Antimalarial activity against Plasmodium vinckei infected in po dosed mouse assessed as reduction in parasitemia; type: functional
# [10] = test system: Plasmodium falciparum; experiment: Antiplasmodial activity against Plasmodium falciparum F-32; type: functional, organism-based
# [11] = test system: Plasmodium berghei; experiment: Antimalarial activity against Plasmodium berghei KBG 173 infected in ICR mouse assessed as survival time at 320 mg/kg/day, po qd administered 3 to 5 days post infection; type: functional; conditions: time 3-5 day
# [12] = test system: Plasmodium berghei; experiment: Antimalarial activity against Plasmodium berghei KBG 173 infected in ICR mouse assessed as animal survival at 20 mg/kg/day, po qd administered 3 to 5 days post infection; type: functional, organism-based; conditions: time 3-5 day
# [13] = test system: Plasmodium berghei; experiment: Antimalarial activity against Plasmodium berghei KBG 173 infected in ICR mouse assessed as animal survival at 80 mg/kg/day, po qd administered 3 to 5 days post infection; type: functional, organism-based; conditions: time 3-5 day
# [14] = test system: Plasmodium berghei; experiment: Antimalarial activity against Plasmodium berghei KBG 173 infected in ICR mouse assessed as survival time at 20 mg/kg/day, po qd administered 3 to 5 days post infection; type: functional; conditions: time 3-5 day
# [15] = test system: Plasmodium berghei; experiment: Antimalarial activity against Plasmodium berghei KBG 173 infected in ICR mouse assessed as animal survival at 320 mg/kg/day, po qd administered 3 to 5 days post infection; type: functional, organism-based; conditions: time 3-5 day
# [16] = test system: Plasmodium berghei; experiment: Antimalarial activity against Plasmodium berghei KBG 173 infected in ICR mouse assessed as survival time at 80 mg/kg/day, po qd administered 3 to 5 days post infection; type: functional; conditions: time 3-5 day
# [17] = test system: Plasmodium falciparum; experiment: Antiplasmodial activity against Plasmodium falciparum gametocytes by [3H]hypoxanthine incorporation assay; type: functional, organism-based
# [18] = test system: Plasmodium falciparum; experiment: Potency index, ratio of artesunate IC50 to test compound IC50 for antiplasmodial activity against Plasmodium falciparum gametocytes by [3H]hypoxanthine incorporation assay; type: functional
# [19] = test system: Plasmodium falciparum; experiment: Potency index, ratio of mefloquine IC50 to test compound IC50 for antiplasmodial activity against Plasmodium falciparum gametocytes by [3H]hypoxanthine incorporation assay; type: functional
# [20] = test system: Plasmodium falciparum; experiment: Antiplasmodial activity against Plasmodium falciparum gametocytes assessed as inhibition of gametocyte activation by [3H]hypoxanthine incorporation assay; type: functional, organism-based
# [21] = test system: Plasmodium chabaudi; experiment: Antiplasmodial activity against Plasmodium chabaudi infected in mouse assessed as survival rate relative to control; type: functional
# [22] = test system: Plasmodium falciparum; experiment: Antiplasmodial activity against Plasmodium falciparum K1; type: functional, organism-based; conditions: Plasmodium falciparum, K1; read-out: ED50 (the source's name)
# [23] = test system: Plasmodium falciparum; experiment: Antiplasmodial activity against Plasmodium falciparum 3D7; type: functional, organism-based; conditions: read-out: ED50 (the source's name)
# [24] = test system: Plasmodium berghei; experiment: Antiplasmodial activity against Plasmodium berghei infected in mouse assessed as reduction in parasitemia at 6.8 mg/kg in presence of mefloquine relative to control; type: functional; set-up: scale not given: the % may be the effect or the level left
# [25] = test system: Plasmodium berghei; experiment: Antiplasmodial activity against Plasmodium berghei infected in mouse assessed as reduction in parasitemia at 13 mg/kg in presence of mefloquine relative to control; type: functional; set-up: scale not given: the % may be the effect or the level left
# [26] = test system: Plasmodium falciparum; experiment: Selectivity ratio of IC50 for antiplasmodial activity against Plasmodium falciparum W2 to IC50 for antiplasmodial activity against Plasmodium falciparum D6; type: functional
# [27] = test system: Plasmodium falciparum; experiment: Antiplasmodial activity against Plasmodium falciparum D6; type: functional, organism-based
# [28] = test system: Plasmodium falciparum; experiment: Antiplasmodial activity against Plasmodium falciparum W2; type: functional, organism-based
# [29] = test system: Human immunodeficiency virus; experiment: Antiviral activity against HIV; type: functional, organism-based; conditions: Human immunodeficiency virus 1
# [30] = test system: Plasmodium falciparum; experiment: Antiplasmodial activity against Plasmodium falciparum TM91C235; type: functional, organism-based
structure (smiles),measurement,setting,value
CC(C)C1=C[C@H]2OC3(CCC(NCCNc4cc(Cl)cc5cccnc45)CC3)OO[C@@]2(C)CC1.O=C(O)CC(O)(CC(=O)O)C(=O)O.O=C(O)CC(O)(CC(=O)O)C(=O)O (some centres not stated),CD50,[1],3 mg/kg/day
same,CD90,[1],12 mg/kg/day
same,ED50,[1]; Plasmodium yoelii,2 mg/kg/day
same,ED90,[1]; Plasmodium yoelii,5 mg/kg/day
same,CD50,[2],22 mg/kg/day
same,CD90,[2],44 mg/kg/day
same,ED50,[2]; Plasmodium yoelii,15 mg/kg/day
same,ED90,[2]; Plasmodium yoelii,23 mg/kg/day
same,IC50,[3],0.004 µM
same,Activity,[4],50%
same,IC50,[5],0.004 µM
same,ED50,[6],5 mg/kg/day
same,IC50,[7],0.004 µM
same,Activity,[8],50%
same,ED50,[9],18 mg/kg/day
same,IC50,[10],0.004 µM
Clc1ccc2c(NCCNCC3CCC4(CC3)OOC3(CCCCC3)OO4)ccnc2c1,Time,[11],>31 days
same,Activity,[12],inactive
same,Activity,[13],Active
same,Time,[14],15.8 days
same,Activity,[15],Active
same,Time,[16],26.4 days
C[C@H]1[C@@H](OC(=O)CCC(=O)O)O[C@@H]2C[C@@]3(C)CC[C@H]4[C@H](C)CC[C@@H]1[C@@]24OO3.FC(F)(F)c1ccc2c(CC3CCCCN3)c3cccc(C(F)(F)F)c3nc2c1 (configuration not stated),IC50,[17],4600 µM
same,Ratio,[18],15
same,Ratio,[19],280
same,IC50,[20],20 µM
C[C@@H]1CC[C@H]2[C@@H](C)C(CCc3ccc(C(=O)O)cc3)O[C@@H]3O[C@]4(C)CC[C@@H]1[C@]32OO4 (some centres not stated),Survival,[21],100%
same,EC50,[22],0.6 ng/mL
same,EC50,[23],1.1 ng/mL
C[C@@H]1CC[C@H]2[C@@H](C)C(CCC(=O)Nc3ccc(F)cc3)O[C@@H]3O[C@]4(C)CC[C@@H]1[C@]32OO4 (some centres not stated),Activity,[24],99%
same,Activity,[25],99.6%
Cc1cccc(C)c1Nc1nc(OCc2cn(CCNc3ccnc4cc(Cl)ccc34)nn2)nc(N(C)C)n1,Ratio IC50,[26],>5.6
same,IC50,[27],0.98 µM
same,IC50,[28],1.69 µM
Cc1cn([C@H]2C[C@H](N=[N+]=[N-])[C@@H](CO[C@H]3OC4O[C@]5(C)CC[C@H]6[C@H](C)CC[C@@H]([C@H]3C)[C@@]46OO5)O2)c(=O)[nH]c1=O (some centres not stated),IC50,[29],2.86 µM
O=C(NCCNc1ccnc2cc(Cl)ccc12)C1CCC2(CC1)OOC1(CCCCC1)OO2,Time,[11],>31 days
same,IC90,[30],0.00378 µM
same,Activity,[12],inactive
same,Activity,[13],Active
same,Time,[14],14.2 days
same,Activity,[15],Active
same,Time,[16],26.2 days
